Experiments:
Test in all cases: relative viability (nuclei count vs DMSO), 5 days (fraction); higher = more cells survive
NCI-H1993 = test system: NCI-H1993
How it was run: (§1)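 Lung cancer cell lines in 1536-well plates were dosed by pin tool the day after seeding, either with one drug alone or with a fixed anchor-drug dose plus five library-drug doses (not always all listed) in √10 steps. After 5 days, cells were fixed and their nuclei stained in one step (final 0.05% Triton X-100, 1% formaldehyde, 1 ug/ml Hoechst), then counted on 4× images. Relative viability is the nuclei count in treated wells divided by that in vehicle wells. Values are medians of duplicate plates.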

NCI-H2023 = test system: NCI-H2023
How it was run: as §1

NCI-H2085 = test system: NCI-H2085
How it was run: as §1

NCI-H2126 = test system: NCI-H2126
How it was run: as §1

NCI-H2342 = test system: NCI-H2342
How it was run: as §1

NCI-H2347 = test system: NCI-H2347
How it was run: as §1

NCI-H358 = test system: NCI-H358
How it was run: as §1

NCI-H650 = test system: NCI-H650
How it was run: as §1

NCI-H838 = test system: NCI-H838
How it was run: as §1

PC-14 = test system: PC-14
How it was run: as §1

SW 1573 = test system: SW 1573
How it was run: as §1

UMC-11 = test system: UMC-11
How it was run: as §1

With `CC1(C)CCC(c2ccc(Cl)cc2)=C(CN2CCN(c3ccc(C(=O)NS(=O)(=O)c4ccc(N[C@H](CCN5CCOCC5)CSc5ccccc5)c(S(=O)(=O)C(F)(F)F)c4)cc3)CC2)C1` [Navitoclax] + COc1cccc2cc(-c3nc([C@H]4CC[C@H](C(=O)O)CC4)n4ncnc(N)c34)[nH]c12 [OSI-027] (partner 0.5 µM) the relative viability (NCI-H1993; first compound 0.1581 µM) was 0.523, the relative viability (NCI-H1993; first compound 0.5 µM) was 0.607 and the relative viability (NCI-H2023; first compound 0.005 µM) was 0.405. It also gave a relative viability (NCI-H2023; first compound 0.01581 µM) of 0.446, a relative viability (NCI-H2023; first compound 0.05 µM) of 0.338 and a relative viability (NCI-H2023; first compound 0.1581 µM) of 0.38. The relative viability (NCI-H2023; first compound 0.5 µM) was 0.416, the relative viability (NCI-H2085; first compound 0.005 µM) was 0.664 and the relative viability (NCI-H2085; first compound 0.01581 µM) was 0.871. It also gave a relative viability (NCI-H2085; first compound 0.05 µM) of 0.544, a relative viability (NCI-H2085; first compound 0.1581 µM) of 0.846 and a relative viability (NCI-H2085; first compound 0.5 µM) of 0.757. The relative viability (NCI-H2126; first compound 0.005 µM) was 0.764, the relative viability (NCI-H2126; first compound 0.01581 µM) was 0.849 and the relative viability (NCI-H2126; first compound 0.1581 µM) was 0.72. For the same compound, the relative viability (NCI-H2126; first compound 0.5 µM) was 0.716, the relative viability (NCI-H2342; first compound 0.005 µM) was 0.579 and the relative viability (NCI-H2342; first compound 0.01581 µM) was 0.632. It also gave a relative viability (NCI-H2342; first compound 0.05 µM) of 0.628, a relative viability (NCI-H2342; first compound 0.1581 µM) of 0.603 and a relative viability (NCI-H2342; first compound 0.5 µM) of 0.525. It also gave a relative viability (NCI-H2347; first compound 0.005 µM) of 0.485, a relative viability (NCI-H2347; first compound 0.01581 µM) of 0.451 and a relative viability (NCI-H2347; first compound 0.1581 µM) of 0.293. It also gave a relative viability (NCI-H2347; first compound 0.5 µM) of 0.401, a relative viability (NCI-H358; first compound 0.005 µM) of 0.785 and a relative viability (NCI-H358; first compound 0.01581 µM) of 1.01. It also gave a relative viability (NCI-H358; first compound 0.05 µM) of 0.706, a relative viability (NCI-H358; first compound 0.1581 µM) of 0.845 and a relative viability (NCI-H358; first compound 0.5 µM) of 0.686. The relative viability (NCI-H650; first compound 0.005 µM) was 0.525, the relative viability (NCI-H650; first compound 0.01581 µM) was 0.569 and the relative viability (NCI-H650; first compound 0.05 µM) was 0.525. It also gave a relative viability (NCI-H650; first compound 0.1581 µM) of 0.498, a relative viability (NCI-H650; first compound 0.5 µM) of 0.547 and a relative viability (NCI-H838; first compound 0.005 µM) of 0.373. For the same compound, the relative viability (NCI-H838; first compound 0.01581 µM) was 0.434, the relative viability (NCI-H838; first compound 0.05 µM) was 0.495 and the relative viability (NCI-H838; first compound 0.1581 µM) was 0.349. It also gave a relative viability (NCI-H838; first compound 0.5 µM) of 0.41, a relative viability (PC-14; first compound 0.005 µM) of 0.735 and a relative viability (PC-14; first compound 0.01581 µM) of 1.12. For the same compound, the relative viability (PC-14; first compound 0.05 µM) was 0.767, the relative viability (PC-14; first compound 0.1581 µM) was 0.842 and the relative viability (PC-14; first compound 0.5 µM) was 0.748. It also gave a relative viability (SW 1573; first compound 0.005 µM) of 0.762, a relative viability (SW 1573; first compound 0.01581 µM) of 0.782 and a relative viability (SW 1573; first compound 0.05 µM) of 0.638. The relative viability (SW 1573; first compound 0.1581 µM) was 0.562, the relative viability (SW 1573; first compound 0.5 µM) was 0.576 and the relative viability (UMC-11; first compound 0.005 µM) was 0.462. It also gave a relative viability (UMC-11; first compound 0.01581 µM) of 0.501, a relative viability (UMC-11; first compound 0.05 µM) of 0.471 and a relative viability (UMC-11; first compound 0.1581 µM) of 0.422. For the same compound, the relative viability (UMC-11; first compound 0.5 µM) was 0.234.

Source: the supplement of paper PMC10307832
